Read-outs that look alike come from different tables or passages of the source.
Tests used:
[1] = Singlet oxygen quantum yield; type: physicochemical; settings: for ΦΔ (singlet oxygen quantum yield): relative to rose bengal (ΦΔ = 0.76)
Description: (§1) The long-lived triplet excited state of rhodamine is anticipated to interact with molecular oxygen (^3O2) to form singlet oxygen (^1O2), which is useful for PDT applications. The ability of M-Rho to produce ^1O2 has been evaluated spectroscopically by the observation of ^1O2 emission at about 1270 nm (inset of FIG. 2b). Remarkable ^1O2 emission is observed in Ir-Rho, Re-Rho and Pt-Rho but not for Rh-Rho and bpy-Rho. By monitoring the diminution of the characteristic absorption of the ^1O2 scavenger 1,3-diphenylisobenzofuran (DPBF) at 410 nm, ^1O2 generation is also confirmed and the corresponding quantum yields (ϕΔ) for the complexes are determined (Table 1). […] The rate and quantum yield of ^1O2 generation are found to vary with different metal systems.
Singlet oxygen quantum yield was determined by comparing the ^1O2 emission intensity of Rose Bengal and M-Rho.

[2] = Singlet oxygen emission at about 1270 nm; type: physicochemical; settings: in CH3CN
Protocol: Singlet oxygen emission was detected by using FLS-980 spectrofluorometer. All of the compounds were dissolved in CH3CN. The absorbance at 532 nm was adjusted to be around 1.7 for all the compounds. Upon measurements, an 850 nm long-pass filter was inserted in between the sample and the detector to avoid many high-order diffraction from the visible emission.

[3] = Octanol-water partition coefficient
Description: (§3) Octanol-water partition coefficients (log Po/w)^[27] of bpy-Rho and M-Rho have been measured in order to study their lipophilic/hydrophilic characters. The higher is the log Po/w value associated with the dye, the higher is its lipophilic character.

[4] = UV/Vis absorption spectra; type: physicochemical; settings: for λabs: absorption maximum, in CH3CN; for ε × 10^4: molar extinction coefficient at the absorption maxima, values × 10^4
Protocol: (§2) The UV-vis absorption spectra were taken on Cary 60 UV-vis spectrophotometer. Steady-state emission spectra at room temperature were recorded on an Edinburgh Instruments FLS980 fluorescence spectrometer. Quartz cuvettes (path length=1 cm) were used in all spectrophotometric and fluorometric measurements. NMR spectra were recorded on a Bruker AVANCE 400 (^1H NMR for 400 MHz and ^13C NMR for 100 MHz) Fourier transform NMR spectrometer with chemical shifts reported relative to tetramethylsilane, (CH3)4Si. High-resolution MS spectra were performed on an Orbitrap Fusion Tribrid mass spectrometer. Elemental analyses of the newly synthesized complexes were preformed on a Elementar Vario EL Cube elemental analyzer at Sun Yat-sen University. The nanosecond time-resolved transient-difference absorption spectra were detected by using Edinburgh LP920 instruments (Edinburgh Instruments, U.K.). All solutions for transient absorption studies were degassed on a high-vacuum line in a two-compartment cell consisting of a 10-ml Pyrex bulb and a 1-cm or 4-mm path length quartz cuvette and sealed from the atmosphere by a Bibby Rotaflo HP6 Teflon stopper. The solutions were rigorously degassed with at least four successive freeze-pump-thaw cycles. Emission lifetime measurements were performed using a conventional laser system. The excitation source used was a 355-nm output (third harmonic) of a Spectra-Physics Quanta-Ray Q-switched GCR-150-10 pulsed Nd-YAG laser. Luminescence decay signals were detected by a Hamamatsu R928 PMT and recorded on a Tektronix Model TDS-620A (500 MHz, 2 GS/s) digital oscilloscope and analyzed using a program for exponential fits. Absolute quantum yields were measured by HAMAMATSU-C11347.

[5] = Steady-state emission spectra and absolute luminescence quantum yield; type: physicochemical; settings: for λem: Conc. = 1.0 × 10^−6M in MeOH; for Φlum: absolute luminescence quantum yield measured by HAMAMATSU-C11347
Protocol: as §2

[6] = Nanosecond transient absorption difference spectroscopy; type: physicochemical; settings: for TT (triplet-state lifetimes): measured by transient absorption in CH3CN
Description: Nanosecond transient absorption (TA) difference spectroscopy was employed to investigate the triplet excited states of M-Rho (FIG. 2c and FIGS. 16-19). Upon pulsed laser excitation at 355 nm, an intense bleaching signal at 575 nm with lifetime in microsecond range is observed, which is ascribed to the depletion of ground state rhodamine absorption. Such a long-lived excited state should be localized on the rhodamine unit, and is assigned as the ^3IL excited state of rhodamine in M-Rho. The absorption signal at 610-800 nm is due to the rhodamine ^3IL excited state absorption. In contrast, no signal from this triplet excited state is detected in bpy-Rho because of the lack of efficient ISC. On the other hand, only the transient absorption signals originating from the corresponding ^3MLCT excited states are observed in the rhodamine-free analogues (FIGS. 20-21).
as §2

[7] = test system: MCF-7 cells; assay: Mitochondrial membrane potential, flow-cytometry-based JC-1 assay; type: cell-based, human; settings: 5 uM, 11 W lamp 30 min
Protocol: Mitochondrial depolarization was assessed by flow cytometry after incubation with JC-1 Molecular Probes (Thermo Fisher Scientific, USA). Briefly, The MCF-7 cells were seeded in six-well plate, incubated for 24 h in 5% CO2 at 37° C. Next, added to compounds (bpy-Rho and M-Rho) in medium make the final concentrations of 5 uM compounds. After irradiation treatment (11 W lamp 30 min). The cells were resuspended in warm PBS, and incubated with JC-1 (4 μg/ml) for 30 min at 37° C. and 5% CO2. Thereafter the cells were centrifuged, resuspended in 600 μL of PBS, and analyzed immediately on a flow cytometer (Becton Dickinson, San Jose, Calif., USA). Untreated cells were used as negative controls.

[8] = DPBF 1O2 scavenger absorbance under 11-W lamp irradiation; type: physicochemical; settings: irradiation with a 11-W lamp; 50 μM DPBF, 5 μM compound
Protocol: Rose Bengal was measured in MeOH.
as §1

[9] = test system: MCF-7 cells; assay: Mitochondria-localized ROS, MitoSOX Red; type: cell-based, human; settings: 10 μM, 11 W lamp irradiation for 10 min
Protocol: (a) Confocal fluorescence microscopic images of MCF-7 cells treated with MitoSOX (1.0 μM) according to the treatment variables, including with coincubation with bpy-Rho and M-Rho (10 μM), 11 W lamp irradiation for 10 min. (b) Flow cytometry analysis of MCF-7 cells (n=10000 cells) after treatment with MitoSox and different Rhodamine-metal Complexes mean fluorescence intensity per cell.
On the basis of the results of intracellular ROS production and colocalization study, it is reasonable to anticipate that the ROS is essentially generated within the mitochondria. MitoSOX Red reagent, a mitochondrial ROS indicator, is also used to probe specifically the generation of mitochondria-localized ROS. Intense red fluorescence from the oxidation of MitoSOX is observed in both confocal fluorescence microscopy images (FIG. 26a) and flow cytometry analysis (FIG. 26b) of MCG-7 cells incubated with MitoSOX and M-Rho.

[10] = test system: MCF-7 cells; assay: Subcellular localization with MitoTracker Green; type: cell-based, human; settings: 5 μM, co-stained with MitoTracker Green
Protocol: MCF-7 cells (5000 cells) were cultured in eight-well chambered coverglasses (lab-Tek, Nunc, USA) for 24 h. Later, added to the cells to give final complexes concentrations (5 μM). After incubation for 30 min, The cells were treated with Mito-Tracker for 10 min to stain specifically the mitochondria (1:5000 dilution in PBS). After washing three times with PBS, followed by confocal microscopy imaging.

[11] = physchem
Description: as §3

[12] = test system: MCF-7 cells; assay: Intracellular ROS, DCFH-DA assay; type: cell-based, human; settings: 5 μM, 11-W lamp for 30 min
Protocol: The MCF-7 cells were seeded in eight-well chambered coverglasses (lab-Tek, Nunc, USA) and six-well plate, incubated for 24 h in 5% CO2 at 37° C. Next, added to compounds (bpy-Rho and M-Rho) in medium make the final concentrations of 5 μM compounds. After irradiation treatment (11 W lamp 30 min), cells were promptly washed with PBS and incubated with 4 μg/ml 2′7′-dichloro-fluoreseindiacetate (DCFH-DA) for 30 min, and intracellular ROS generation was evaluated by flow cytometry and confocal microscopy.

[13] = octanol-water, literature value; cited from earlier work

Row | SMILES | ΦΔ (singlet oxygen quantum yield) [1] | 1O2 emission at about 1270 nm [2] | log Po/w [3] | λabs [4] [nm] | ε × 10^4 [4] [M^−1 cm^−1] | λem [5] [nm] | Φlum [5] | TT (triplet-state lifetimes) [6] [μs] | ratio of JC-1 aggregates/JC-1 monomers [7] | rate and quantum yield of 1O2 generation, ranking ([1]; among M-Rho) | DPBF absorption at 410 nm [8] | MitoSOX red fluorescence (mitochondria-localized ROS) [9] | emission ([5]; in MeCN) [nm] | mitochondrial localization [10] | signal from rhodamine triplet excited state ([6]; excitation at 355 nm) | logP [11] | intracellular ROS generation [12] | log Po/w [13]
1 | CCN(CC)c1ccc2c(-c3ccnc(-c4cc(C)ccn4)c3)c3ccc(=[N+](CC)CC)cc-3oc2c1.F[P-](F)(F)(F)(F)F.[C](#Cc1ccccc1)[Pt][C]#Cc1ccccc1 [Pt-Rho] | 0.57 | Remarkable | 1.26 | 574 | 7.96 | 631 | 0.062 | 8.49 | 8.16 |  |  |  |  |  |  |  |  | 
2 | CCN(CC)c1ccc2c(-c3ccnc(-c4cc(C)ccn4)c3)c3ccc(=[N+](CC)CC)cc-3oc2c1.F[P-](F)(F)(F)(F)F.F[P-](F)(F)(F)(F)F.c1ccc(-c2cccc[c]2[Rh+][c]2ccccc2-c2ccccn2)nc1 [Rh-Rho] | 0.37 | not | −1.05 | 574 | 8.24 | 629 | 0.23 | 14.1 | 11.28 | worst photosensitizer |  |  |  |  |  |  |  | 
3 | CCN(CC)c1ccc2c(-c3ccnc(-c4cc(C)ccn4)c3)c3ccc(=[N+](CC)CC)cc-3oc2c1 [bpy-Rho, N-(6-(diethylamino)-9-(4′-methyl-[2,2′-bipyridin]-4-yl)-3H-xanthen-3-ylidene)-N-ethylethanaminium] | 0.08 | not |  | 564 | 9.86 | 598 | 0.29 |  | 14.23 |  | negligible decrease | very weak red fluorescence | 598 | relatively less mitochondria-localized | no signal | 0.49 | negligible or a little amount of ROS | 
4 | COC(=O)c1ccccc1-c1c2ccc(=N)cc-2oc2cc(N)ccc12.Cl [rhodamine 123] |  |  |  |  |  |  |  |  |  |  |  |  |  |  |  |  |  | −0.62
